Test results reported in patent publication US10023543B2 (CELGENE QUANTICEL RESEARCH, INC., priority 2014, dated 2018).

Each compound was assayed on THP-1 (AML) cells (assay: LSD1 CD11b cellular assay (flow cytometry)). Settings: Homo sapiens, THP-1, 96 h, read-out: THP-1 IC50 (μM).
Type: cell-based

Question: With `COc1ccc(-c2c(-c3ccc(C#N)cc3)nc(N3CCC(N)CC3)n(C)c2=O)cc1` [Example 2, 4-[2-(4-amino-piperidin-1-yl)-5-(4-methoxy-phenyl)-1-methyl-6-oxo-1,6-dihydro-pyrimidin-4-yl]-benzonitrile] as the compound, how does the IC50 read?
Answer: The IC50 was under 0.1 µM.

Same assay, conditions: Homo sapiens, THP-1, 96 h; CD11b expressing cells, 4 days; read-out: THP-1 IC50

Question: For `COc1ccc(-c2c(-c3ccc(C#N)c(F)c3)nc(N3CCC4(CCNC4)CC3)n(C)c2=O)cc1F` [Example 22, 4-[2-(2,8-diaza-spiro[4.5]dec-8-yl)-5-(3-fluoro-4-methoxy-phenyl)-1-methyl-6-oxo-1,6-dihydro-pyrimidin-4-yl]-2-fluoro-benzonitrile], which IC50 is on record?
Answer: The IC50 was under 0.1 µM.

Question: For `Cn1c(N2CCC(N)CC2)nc(-c2ccc(C#N)c(F)c2)c(-c2ccc3[nH]ccc3c2)c1=O` [Example 73, 4-[2-(4-amino-piperidin-1-yl)-5-(1H-indol-5-yl)-1-methyl-6-oxo-1,6-dihydro-pyrimidin-4-yl]-2-fluoro-benzonitrile], which IC50 is on record?
Answer: The IC50 was under 0.1 µM.

Question: How did the IC50 turn out when `Cn1c(N2CCC(N)CC2)nc(-c2ccc(C#N)c(F)c2)c(-c2ccc(CO)cc2)c1=O` [Example 100, 4-[2-(4-aminopiperidin-1-yl)-5-[4-(hydroxymethyl)phenyl]-1-methyl-6-oxopyrimidin-4-yl]-2-fluorobenzonitrile] was run?
Answer: Its IC50 is under 0.1 µM.

Question: How did the IC50 turn out when `COc1ccc(-c2c(-c3ccc(C#N)c(F)c3)nc(NC[C@@H]3CCNC3)n(C)c2=O)cc1` [Example 52, 2-luoro-4-{5-(4-methoxy-phenyl)-1-methyl-6-oxo-2-[(3R)-(pyrrolidin-3-ylmethyl)-amino]-1,6-dihydro-pyrimidin-4-yl}-benzonitrile] was run?
Answer: The IC50 was 0.1 to 1 µM.

Question: With `Cn1c(N2CCC(N)CC2)nc(-c2ccc(C#N)c(F)c2)c(-c2ccc(S(C)(=O)=O)cc2)c1=O` [Example 105, 4-[2-(4-aminopiperidin-1-yl)-1-methyl-5-(4-methylsulfonylphenyl)-6-oxopyrimidin-4-yl]-2-fluorobenzonitrile] as the compound, how does the IC50 read?
Answer: Its IC50 is under 0.1 µM.

Question: How did the IC50 turn out when `COc1ccc(-c2c(-c3ccc(C#N)c(F)c3)nc(N3CC[C@H](N)C3)n(C)c2=O)cc1F` [Example 29, 4-[2-((3S)-3-amino-pyrrolidin-1-yl)-5-(3-fluoro-4-methoxy-phenyl)-1-methyl-6-oxo-1,6-dihydro-pyrimidin-4-yl]-2-fluoro-benzonitrile] was run?
Answer: The IC50 was 0.1 to 1 µM.

Question: How did the IC50 turn out when `CNC(=O)c1ccc(-c2c(-c3ccc(C#N)c(F)c3)nc(N3CCC(N)CC3)n(C)c2=O)cn1` [Example 50, 5-[2-(4-amino-piperidin-1-yl)-4-(4-cyano-3-fluoro-phenyl)-1-methyl-6-oxo-1,6-dihydro-pyrimidin-5-yl]-pyridine-2-carboxylic acid methylamide] was run?
Answer: Its IC50 is under 0.1 µM.

Question: Which IC50 does the source give for `Cn1c(N2CCC(N)CC2)nc(-c2ccc(C#N)c(F)c2)c(-c2ccc(N3CCOCC3)nc2)c1=O` [Example 68, 4-[2-(4-amino-piperidin-1-yl)-1-methyl-5-(6-morpholin-4-yl-pyridin-3-yl)-6-oxo-1,6-dihydro-pyrimidin-4-yl]-2-fluoro-benzonitrile] here?
Answer: Its IC50 is under 0.1 µM.

Question: `CNC1CCN(c2nc(-c3ccc(C#N)c(F)c3)c(-c3ccc4c(cnn4C)c3)c(=O)n2C)CC1` [Example 87, 2-fluoro-4-[1-methyl-2-[4-(methylamino)piperidin-1-yl]-5-(1-methylindazol-5-yl)-6-oxopyrimidin-4-yl]benzonitrile] was tested. Which IC50 did it give?
Answer: The IC50 was under 0.1 µM.

Question: How did the IC50 turn out when `COc1ccc(-c2c(-c3ccc(C#N)c(F)c3)nc(N(C)C[C@H]3CCNC3)n(C)c2=O)cc1` [Example 54, 2-fluoro-4-[5-(4-methoxy-phenyl)-1-methyl-2-(methyl-(3S)-pyrrolidin-3-ylmethyl-amino)-6-oxo-1,6-dihydro-pyrimidin-4-yl]-benzonitrile] was run?
Answer: The IC50 was under 0.1 µM.

Question: `Cn1c(N2CCC(N)CC2)nc(-c2ccc(C#N)c(F)c2)c(-c2ccc3c(c2)CNC3=O)c1=O` [Example 42, 4-[2-(4-amino-piperidin-1-yl)-1-methyl-6-oxo-5-(1-oxo-2,3-dihydro-1H-isoindol-5-yl)-1,6-dihydro-pyrimidin-4-yl]-2-fluoro-benzonitrile] was tested. Which IC50 did it give?
Answer: The IC50 was 0.1 to 1 µM.

Question: With `CNc1ccc(-c2c(-c3ccc(C#N)c(F)c3)nc(N3CCC(N)CC3)n(C)c2=O)cc1` [Example 90, 4-[2-(4-aminopiperidin-1-yl)-1-methyl-5-[4-(methylamino)phenyl]-6-oxopyrimidin-4-yl]-2-fluorobenzonitrile] as the compound, how does the IC50 read?
Answer: Its IC50 is under 0.1 µM.

Question: For `Cn1c(N2CCC(N)CC2)nc(-c2ccc(C#N)c(F)c2)c(-c2ccc(N3CCCC3)nc2)c1=O` [Example 60, 4-[2-(4-amino-piperidin-1-yl)-1-methyl-6-oxo-5-(6-pyrrolidin-1-yl-pyridin-3-yl)-1,6-dihydro-pyrimidin-4-yl]-2-fluoro-benzonitrile], which IC50 is on record?
Answer: Its IC50 is under 0.1 µM.

Question: `Cn1c(N2CCC(N)CC2)nc(-c2ccc(C#N)c(F)c2)c(-c2cccc(F)c2)c1=O` [Example 102, 4-[2-(4-aminopiperidin-1-yl)-5-(3-fluorophenyl)-1-methyl-6-oxopyrimidin-4-yl]-2-fluorobenzonitrile] was tested. Which IC50 did it give?
Answer: Its IC50 is under 0.1 µM.

Question: For `Cn1cc2cc(-c3c(-c4ccc(C#N)c(F)c4)nc(N4CCC(N)CC4)n(C)c3=O)ccc2n1` [Example 37, 4-[2-(4-aminopiperidyl)-1-methyl-5-(2-methyl(2H-indazol-5-yl))-6-oxohydropyrimidin-4-yl]-2-fruorobenzenecarbonitrile], which IC50 is on record?
Answer: Its IC50 is under 0.1 µM.

Question: With `Cn1c(N2CCC(N)CC2)nc(-c2ccc(C#N)c(F)c2)c(-c2ccc(CCO)cc2)c1=O` [Example 99, 4-[2-(4-aminopiperidin-1-yl)-5-[4-(2-hydroxyethyl)phenyl]-1-methyl-6-oxopyrimidin-4-yl]-2-fluorobenzonitrile] as the compound, how does the IC50 read?
Answer: The IC50 was under 0.1 µM.

Question: How did the IC50 turn out when `CNC1CCN(c2nc(-c3ccc(C#N)c(F)c3)c(-c3ccc(OC)cc3)c(=O)n2C)CC1` [Example 11, 2-fluoro-4-[5-(4-methoxy-phenyl)-1-methyl-2-(4-methylamino-piperidin-1-yl)-6-oxo-1,6-dihydro-pyrimidin-4-yl]-benzonitrile] was run?
Answer: Its IC50 is under 0.1 µM.

Question: How did the IC50 turn out when `COc1ccc(-c2c(-c3ccc(C#N)c(F)c3)nc(N3CCC[C@H](N)C3)n(C)c2=O)cc1` [Example 31, 4-[2-((3S)-3-amino-piperidin-1-yl)-5-(4-methoxy-phenyl)-1-methyl-6-oxo-1,6-dihydro-pyrimidin-4-yl]-2-fluoro-benzonitrile] was run?
Answer: Its IC50 is under 0.1 µM.

Question: Which IC50 does the source give for `Cn1c(N2CCC(N)CC2)nc(-c2ccc(C#N)c(F)c2)c(C#CC2CCCC2)c1=O` [Example 14, 4-[2-(4-amino-piperidin-1-yl)-5-cyclopentylethynyl-1-methyl-6-oxo-1,6-dihydro-pyrimidin-4-yl]-2-fluoro-benzonitrile] here?
Answer: Its IC50 is under 0.1 µM.

Question: Which IC50 does the source give for `CNC1CCN(c2nc(-c3ccc(C#N)c(F)c3)c(-c3ccc(N(C)C)nc3)c(=O)n2C)CC1` [Example 83, 4-[5-(6-dimethylamino-pyridin-3-yl)-1-methyl-2-(4-methylamino-piperidin-1-yl)-6-oxo-1,6-dihydro-pyrimidin-4-yl]-2-fluoro-benzonitrile] here?
Answer: Its IC50 is under 0.1 µM.

Question: Which IC50 does the source give for `CN(C)c1ccc(-c2c(-c3ccc(C#N)c(F)c3)nc(N3CCCNCC3)n(C)c2=O)cn1` [Example 63, 4-[2-[1,4]diazepan-1-yl-5-(6-dimethylamino-pyridin-3-yl)-1-methyl-6-oxo-1,6-dihydro-pyrimidin-4-yl]-2-fluoro-benzonitrile] here?
Answer: The IC50 was under 0.1 µM.

Question: How did the IC50 turn out when `CN(C)C1CCN(c2nc(-c3ccc(C#N)c(F)c3)c(-c3ccc4cn[nH]c4c3)c(=O)n2C)CC1` [Example 84, 4-[2-(4-dimethylamino-piperidin-1-yl)-5-(2H-indazol-6-yl)-1-methyl-6-oxo-1,6-dihydro-pyrimidin-4-yl]-2-fluoro-benzonitrile] was run?
Answer: Its IC50 is under 0.1 µM.

Question: How did the IC50 turn out when `COCc1ccc(-c2c(-c3ccc(C#N)c(F)c3)nc(N3CCC(N)CC3)n(C)c2=O)cc1` [Example 107, 4-[2-(4-aminopiperidin-1-yl)-5-[4-(methoxymethyl)phenyl]-1-methyl-6-oxopyrimidin-4-yl]-2-fluorobenzonitrile] was run?
Answer: Its IC50 is under 0.1 µM.

Question: `COc1ccc(-c2c(-c3ccc(C#N)c(F)c3)nc(N3CCC[C@@H](N)C3)n(C)c2=O)cc1` [Example 30, 4-[2-((3R)-3-aminopiperidyl)-5-(4-methoxyphenyl)-1-methyl-6-oxohydro-pyrimidin-4-yl]-2-fluorobenzenecarbonitrile] was tested. Which IC50 did it give?
Answer: Its IC50 is under 0.1 µM.

Question: For `COc1ccc(-c2c(-c3ccc(C#N)c(F)c3)nc(N3CC[C@H](N)[C@H](F)C3)n(C)c2=O)cc1` [Example 79, 4-[2-((4S,3R)-4-amino-3-fluoro-piperidin-1-yl)-5-(4-methoxy-phenyl)-1-methyl-6-oxo-1,6-dihydro-pyrimidin-4-yl]-2-fluoro-benzonitrile], which IC50 is on record?
Answer: The IC50 was under 0.1 µM.

Question: Which IC50 does the source give for `Cn1c(N2CCC(N)CC2)nc(-c2ccc(C#N)c(F)c2)c(-c2ccc(Cl)cc2)c1=O` [Example 106, 4-[2-(4-aminopiperidin-1-yl)-5-(4-chlorophenyl)-1-methyl-6-oxopyrimidin-4-yl]-2-fluorobenzonitrile] here?
Answer: Its IC50 is under 0.1 µM.

Question: For `CN(C)C1CCN(c2nc(-c3ccc(C#N)c(F)c3)c(-c3ccc4c(cnn4C)c3)c(=O)n2C)CC1` [Example 72, 4-[2-(4-dimethylamino-piperidin-1-yl)-1-methyl-5-(1-methyl-1H-indazol-5-yl)-6-oxo-1,6-dihydro-pyrimidin-4-yl]-2-fluoro-benzonitrile], which IC50 is on record?
Answer: Its IC50 is under 0.1 µM.

Question: With `CN(C)c1ccc(-c2c(-c3ccc(C#N)cc3)nc(N3CCCNCC3)n(C)c2=O)cn1` [Example 67, 4-[2-[1,4]diazepan-1-yl-5-(6-dimethylamino-pyridin-3-yl)-1-methyl-6-oxo-1,6-dihydro-pyrimidin-4-yl]-benzonitrile] as the compound, how does the IC50 read?
Answer: The IC50 was under 0.1 µM.

Question: Which IC50 does the source give for `COc1ccc(-c2c(-c3ccc(C#N)c(F)c3)nc(N(C)C[C@@H]3CCNC3)n(C)c2=O)cc1` (stereo in doubt) [Example 56, 2-fluoro-4-[5-(4-methoxy-phenyl)-1-methyl-2-(methyl-pyrrolidin-3-ylmethyl-amino)-6-oxo-1,6-dihydro-pyrimidin-4-yl]-benzonitrile] here?
Answer: The IC50 was under 0.1 µM.

Question: Which IC50 does the source give for `CCc1ccc(-c2c(-c3ccc(C#N)cc3)nc(N3CCC(N)CC3)n(C)c2=O)cn1` [Example 10, 4-[2-(4-amino-piperidin-1-yl)-5-(6-ethyl-pyridin-3-yl)-1-methyl-6-oxo-1,6-dihydro-pyrimidin-4-yl]-benzonitrile] here?
Answer: Its IC50 is 0.1 to 1 µM.
